# Assay results from patent USRE48097E1, “Cephem compounds, their production and use” (priority 2015, dated 2020).
# Read-outs that look alike come from different tables or passages of the source.
# How the values were obtained:
# Type in all cases: cell-based
# [1] = system: E. cloacae 2709; experiment: MIC against E. cloacae 2709; settings: Table 3, E. cloacae 2709, KPC-3, VIM-1
# Experimental: (§1) As shown, the foregoing composition was tested for minimum inhibitory concentration (MIC, μg/mL) against bacteria listed in Tables 2-3.
# [2] = system: S. pneumoniae 2389; experiment: MIC against S. pneumoniae 2389; settings: Table 2, S. pneumoniae 2389, Pen R
# Excerpt: (§2) Without limitation, the present cephem compounds alone, or in combination with one or more β-lactamase inhibitors, may provide improved antibacterial efficacy, particularly in antibiotic-resistant bacterial strains. It is believed that the present compounds may be structurally different from known compounds and, as a result, may be more basic in nature. It is an advantage that the present compounds may extend the spectrum of effective bacterial compounds, particularly against previously-resistant bacteria (e.g. ESKAPE organisms), and/or gram negative bacteria, without significant side effects. In a preferred embodiment, the present cephem compound may comprise reference compound ceftazidime, which may be used alone, or in combination with one or more β-lactamase inhibitors, such as NXL-104. As shown, the foregoing composition was tested for minimum inhibitory concentration (MIC, μg/mL) against bacteria listed in Tables 2-3.
# [3] = system: E. cloacae 551; experiment: MIC against E. cloacae 551; settings: Table 2, E. cloacae 551, Caz R, IMP S
# Excerpt: as §2
# [4] = system: E. coli 2666; experiment: MIC against E. coli 2666; settings: Table 3, E. coli 2666, KPC-2
# Experimental: as §1
# [5] = system: K. pneumoniae 4104; experiment: MIC against K. pneumoniae 4104; settings: K. pneumoniae 4104, KPC-3, TEM-1
# Experimental: as §1
# [6] = system: K. pneumoniae 4109; experiment: MIC against K. pneumoniae 4109; settings: Table 2, K. pneumoniae 4109, SHV-1, SHV-12
# Excerpt: as §2
# [7] = system: K. pneumoniae 2711; experiment: MIC against K. pneumoniae 2711; settings: Table 3, K. pneumoniae 2711, KPC-3, VIM-1
# Experimental: as §1
# [8] = system: K. baumanii 4095; experiment: MIC against K. baumanii 4095; settings: Table 2, K. baumanii 4095, OXA-48
# Excerpt: as §2
# [9] = system: S. pneumoniae 2403; experiment: MIC against S. pneumoniae 2403; settings: Table 2, S. pneumoniae 2403, Pen S
# Excerpt: as §2
# [10] = system: K. pneumoniae 2690; experiment: MIC against K. pneumoniae 2690; settings: Table 3, K. pneumoniae 2690, KPC-2
# Experimental: as §1
# [11] = system: E. coli 4102; experiment: MIC against E. coli 4102; settings: Table 2, E. coli 4102, CTX-M-14
# Excerpt: as §2
# [12] = system: E. coli 102; experiment: MIC against E. coli 102; settings: Table 2, E. coli 102, TEM-1
# Excerpt: as §2
# [13] = system: S. pneumoniae 2392; experiment: MIC against S. pneumoniae 2392; settings: Table 2, S. pneumoniae 2392, Pen R
# Excerpt: as §2
# [14] = system: S. aureus 3132; experiment: MIC against S. aureus 3132; settings: Table 2, S. aureus 3132, MSSA
# Excerpt: as §2
# [15] = Enterobacter cloacae, alone, read-out: MIC
# [16] = Streptococcus pneumoniae, alone, read-out: MIC
# [17] = Escherichia coli, alone, read-out: MIC
# [18] = Klebsiella pneumoniae, 4104, Table 2, alone, read-out: MIC
# [19] = Klebsiella pneumoniae, 4104, Table 3, alone, read-out: MIC
# [20] = Table 2, in combination with NXL-104
# [21] = Table 3, in combination with NXL-104
# [22] = Klebsiella pneumoniae, alone, read-out: MIC
# [23] = Staphylococcus aureus, alone, read-out: MIC
SMILES,"MIC [1, 15] [µg/mL]",MIC ([1]; in combination with NXL-104) [µg/mL],"MIC [2, 16] [µg/mL]",MIC ([2]; in combination with NXL-104) [µg/mL],"MIC [3, 15] [µg/mL]",MIC ([3]; in combination with NXL-104) [µg/mL],"MIC [4, 17] [µg/mL]",MIC ([4]; in combination with NXL-104) [µg/mL],"MIC [5, 18] [µg/mL]","MIC [5, 19] [µg/mL]","MIC [5, 20] [µg/mL]","MIC [5, 21] [µg/mL]","MIC [6, 22] [µg/mL]",MIC ([6]; in combination with NXL-104) [µg/mL],"MIC [7, 22] [µg/mL]",MIC ([7]; in combination with NXL-104) [µg/mL],"MIC ([8]; alone, read-out: MIC) [µg/mL]",MIC ([8]; in combination with NXL-104) [µg/mL],"MIC [9, 16] [µg/mL]",MIC ([9]; in combination with NXL-104) [µg/mL],further results
"CC(C)(O/N=C(\C(=O)N[C@@H]1C(=O)N2C(C(=O)[O-])=C(C[n+]3ccc4c(ccn4Cc4cc(C(=N)N)cs4)c3)CS[C@H]12)c1csc(N)n1)C(=O)O [Example 5, (6R,7R)-7-{[(2Z)-2-(2-Amino-1,3-thiazol-4-yl)-2-{[(2-carboxypropan-2-yl)oxy]imino}acetyl]amino}-3-({1-[(4-carbamimidoylthiophen-2-yl)methyl]-1H-pyrrolo[3,2-c]pyridin-5-ium-5-yl}methyl)-8-oxo-5-thia-1-azabicyclo[4.2.0]oct-2-ene-2-carboxylate]",32,4,2,1.00,32,1.00,16,1,32,16,2.00,0.5,8,0.12,2,0.25,0.25,0.25,≤ 0.06,≤0.06,"MIC [10, 22]: 8 µg/mL; MIC ([10]; in combination with NXL-104): .5 µg/mL; MIC [11, 17]: 1 µg/mL; MIC ([11]; in combination with NXL-104): ≤0.06 µg/mL; MIC [12, 17]: ≤ 0.06 µg/mL; MIC ([12]; in combination with NXL-104): ≤0.06 µg/mL; MIC [13, 16]: 2 µg/mL; MIC ([13]; in combination with NXL-104): 1.00 µg/mL; MIC [14, 23]: 2 µg/mL; MIC ([14]; in combination with NXL-104): 2.00 µg/mL"
"CC(C)(O/N=C(\C(=O)N[C@@H]1C(=O)N2C(C(=O)[O-])=C(C[n+]3ccccc3)CS[C@H]12)c1csc(N)n1)C(=O)O [CAZ, ceftazidime, reference compound]",–,8,–,16.00,–,4.00,–,4,–,–,8.00,2,–,0.50,–,2,–,0.50,–,0.12,"MIC ([1]; alone): >32 µg/mL; MIC ([2]; alone): 16.00 µg/mL; MIC ([3]; alone): 16.00 µg/mL; MIC ([4]; alone): >32 µg/mL; MIC ([5]; Table 2, alone): 32.00 µg/mL; MIC ([5]; Table 3, alone): >32 µg/mL; MIC ([6]; alone): 2.00 µg/mL; MIC ([7]; alone): >32 µg/mL; MIC ([8]; alone): 0.50 µg/mL; MIC ([9]; alone): 0.12 µg/mL; MIC ([10]; alone): >32 µg/mL; MIC ([10]; in combination with NXL-104): 4 µg/mL; MIC ([11]; alone): 1.00 µg/mL; MIC ([11]; in combination with NXL-104): 0.25 µg/mL; MIC ([12]; alone): 0.12 µg/mL; MIC ([12]; in combination with NXL-104): 0.12 µg/mL; MIC ([13]; alone): 16.00 µg/mL; MIC ([13]; in combination with NXL-104): 16.00 µg/mL; MIC ([14]; alone): 8.00 µg/mL; MIC ([14]; in combination with NXL-104): 8.00 µg/mL"
"CC(C)(O/N=C(\C(=O)N[C@@H]1C(=O)N2C(C(=O)[O-])=C(C[n+]3ccc4n3CCN4Cc3ccc(C(=N)N)cc3)CS[C@H]12)c1csc(N)n1)C(=O)O [Example 2, (6R,7R)-7-{[(2Z)-2-(2-Amino-1,3-thiazol-4-yl)-2-{[(2-carboxypropan-2-yl)oxy]imino}acetyl]amino}-3-{[1-(4-carbamimidoylbenzyl)-2,3-dihydro-1H-imidazo[1,2-b]pyrazol-5-ium-5-yl]methyl}-8-oxo-5-thia-1-azabicyclo[4.2.0]oct-2-ene-2-carboxylate]",16,4,8,8.00,8,1.00,32,2,8,32,2.00,2,0.5,0.12,4,0.5,0.25,0.25,≤ 0.06,≤0.06,"MIC [10, 22]: 32 µg/mL; MIC ([10]; in combination with NXL-104): 2 µg/mL; MIC [11, 17]: 1 µg/mL; MIC ([11]; in combination with NXL-104): 0.12 µg/mL; MIC [12, 17]: ≤ 0.06 µg/mL; MIC ([12]; in combination with NXL-104): ≤0.06 µg/mL; MIC [13, 16]: 8 µg/mL; MIC ([13]; in combination with NXL-104): 8.00 µg/mL; MIC [14, 23]: 2 µg/mL; MIC ([14]; in combination with NXL-104): 2.00 µg/mL"

# The next lines start with results.
"MIC [1, 15] [µg/mL]",MIC ([1]; in combination with NXL-104) [µg/mL],"MIC [2, 16] [µg/mL]",MIC ([2]; in combination with NXL-104) [µg/mL],"MIC [3, 15] [µg/mL]",MIC ([3]; in combination with NXL-104) [µg/mL],"MIC [4, 17] [µg/mL]",MIC ([4]; in combination with NXL-104) [µg/mL],"MIC [5, 18] [µg/mL]","MIC [5, 19] [µg/mL]","MIC [5, 20] [µg/mL]","MIC [5, 21] [µg/mL]","MIC [6, 22] [µg/mL]",MIC ([6]; in combination with NXL-104) [µg/mL],"MIC [7, 22] [µg/mL]",MIC ([7]; in combination with NXL-104) [µg/mL],"MIC ([8]; alone, read-out: MIC) [µg/mL]",MIC ([8]; in combination with NXL-104) [µg/mL],"MIC [9, 16] [µg/mL]",MIC ([9]; in combination with NXL-104) [µg/mL],SMILES,further results
32,4,2,2.00,16,1.00,16,1,32,32,2.00,0.5,8,0.12,4,0.5,0.12,0.25,≤ 0.06,≤0.06,"CC(C)(O/N=C(\C(=O)N[C@@H]1C(=O)N2C(C(=O)[O-])=C(C[n+]3ccc4c(ccn4Cc4cc(C(=N)N)co4)c3)CS[C@H]12)c1csc(N)n1)C(=O)O [Example 6, (6R,7R)-7-{[(2Z)-2-(2-Amino-1,3-thiazol-4-yl)-2-{[(2-carboxypropan-2-yl)oxy]imino}acetyl]amino}-3-({1-[(4-carbamimidoylfuran-2-yl)methyl]-1H-pyrrolo[3,2-c]pyridin-5-ium-5-yl}methyl)-8-oxo-5-thia-1-azabicyclo[4.2.0]oct-2-ene-2-carboxylate]","MIC [10, 22]: 16 µg/mL; MIC ([10]; in combination with NXL-104): 1 µg/mL; MIC [11, 17]: 2 µg/mL; MIC ([11]; in combination with NXL-104): 0.12 µg/mL; MIC [12, 17]: ≤ 0.06 µg/mL; MIC ([12]; in combination with NXL-104): ≤0.06 µg/mL; MIC [13, 16]: 2 µg/mL; MIC ([13]; in combination with NXL-104): 2.00 µg/mL; MIC [14, 23]: 4 µg/mL; MIC ([14]; in combination with NXL-104): 4.00 µg/mL"
32,–,4,–,32,–,32,–,16,32,–,–,2,–,4,–,0.5,–,≤ 0.06,–,"CC(C)(O/N=C(\C(=O)N[C@@H]1C(=O)N2C(C(=O)[O-])=C(C[n+]3ccc4c(ccn4Cc4ccc(C(=N)N)cc4)c3)CS[C@H]12)c1csc(N)n1)C(=O)O [Ex-1, (6R,7R)-7-{[(2Z)-2-(2-Amino-1,3-thiazol-4-yl)-2-{[(2-carboxypropan-2-yl)oxy]imino}acetyl]-amino}-3-{[1-(4-carbamimidoylbenzyl)-1H-pyrrolo[3,2-c]pyridin-5-ium-5-yl]methyl}-8-oxo-5-thia-1-azabicyclo[4.2.0]oct-2-ene-2-carboxylate]","MIC [10, 22]: 32 µg/mL; MIC [11, 17]: 1 µg/mL; MIC [12, 17]: ≤ 0.06 µg/mL; MIC [13, 16]: 2 µg/mL"
